These results are taken from patent US12686664B2, “SOCE inhibitors and therapeutic uses thereof” (Institut National de la Santé et de la Recherche Médicale …, priority 2020, dated 2026).

Structures can show the parent of a compound that is named as a salt. Where two headings read alike, the source gives them in different places.

In this test the test system is store-operated Ca^2+ entry in PLP-B lymphocytes. Kind of test: Store-operated Ca2+ entry after thapsigargin depletion of ER Ca2+ stores in PLP-B lymphocytes. It is filed as cell-based. The note with it: Lymphocyte; for IC50: SOCE in PLP-B lymphocytes, average of three assays, ±0.5 μM. How it is done: The effects of the molecules developed were tested on PLP-B lymphocytes. Store-operated Ca^2+ entry was induced by depletion of Endoplasmic Reticulum Ca^2+ stores (ER Ca^2+ stores) with thapsigargin (Tg) in a Ca^2+-free medium and measured following the addition of 1.8 mM of CaCl2) in the extracellular medium. The results are compared to the results obtained for known SOCE inhibitors SKF-96365, GSK-7975A, Synta 66.

Where [1] appears, read: PLP-B lymphocytes, % of inhibition (−) or activation, DMSO control 100%, read-out: Effect on amplitude of SOCE Peak.
[2] abbreviates: thapsigargin (Tg) peak, PLP-B lymphocytes, % of inhibition (−) or activation, read-out: Effect on amplitude of Tg Peak.
[3] abbreviates: 100 μM, PLP-B lymphocytes, % of inhibition (−) or activation, DMSO control 100%, read-out: Effect on amplitude of SOCE Peak.
Where [4] appears, read: 100 μM, thapsigargin (Tg) peak, PLP-B lymphocytes, % of inhibition (−) or activation, read-out: Effect on amplitude of Tg Peak.
The mark [5] stands for this setting: 1 μM, PLP-B lymphocytes, % of inhibition (−) or activation, DMSO control 100%, read-out: Effect on amplitude of SOCE Peak.
The mark [6] stands for this setting: 1 μM, thapsigargin (Tg) peak, PLP-B lymphocytes, % of inhibition (−) or activation, read-out: Effect on amplitude of Tg Peak.

Broadly, the IC50 is the concentration needed to halve the response being measured. Higher therefore signals a need for much substance.

Consider `Oc1ccc(Cn2cnc3cc(F)ccc32)cc1` [9αe], for which the inhibition at 10 µM under setting [1] was -6% and the inhibition at 10 µM under setting [2] worked out at 3%. In addition, the inhibition at 50 µM by setting is: under setting [1], 5%; under setting [2], 8%. The inhibition at 100 µM reads like this: under setting [3], 21%; under setting [4], 15%.

`c1ccc2c(c1)ncn2CCc1ccc(OCCc2ccc(OC3CCCCO3)cc2)cc1` (stereo not shown) [11αb, 1-(4-(4-((Tetrahydro-2H-pyran-2-yl)oxy)phenethoxy)phenethyl)-1H-benzo[d]imidazole]: the IC50 worked out at 6.8 µM. For the same compound, under setting [1], the inhibition at 0.1 µM was -28%, the inhibition at 5 µM was -16%, the inhibition at 10 µM came to 29% and the inhibition at 50 µM is 51%. For the same compound, under setting [2], the inhibition at 0.1 µM was -11%, the inhibition at 5 µM was determined as 2%, the inhibition at 10 µM was -2% and the inhibition at 50 µM is 2%. Also, under setting [5], the inhibition at 1 µM is -41%. The percent change in peak amplitude vs DMSO control (negative = inhibition, positive = activation) at 1 µM under setting [6] was determined as 0%.

Regarding `Fc1ccc2c(c1)ncn2CCc1ccc(OCCc2ccc(OC3CCCCO3)cc2)cc1` (stereo not shown) [11αc, 5-Fluoro-1-(4-(4-((tetrahydro-2H-pyran-2-yl)oxy)phenethoxy)phenethyl)-1H-benzo[d]imidazole], the concentration for half-maximal inhibition (IC50) is 1.6 µM. In addition, under setting [1], the inhibition at 0.1 µM was -67%, the inhibition at 10 µM came out at 31% and the inhibition at 50 µM was 54%. Moreover, under setting [2], the inhibition at 0.1 µM was -16%, the inhibition at 10 µM is 10% and the inhibition at 50 µM stood at 12%. Also, the inhibition at 1 µM under setting [5] is -26%. Also, the inhibition at 1 µM under setting [6] was -4%. In addition, the inhibition at 100 µM under setting [3] stood at 35%. Further, the inhibition at 100 µM under setting [4] is -3%.

As for `c1ccc2c(c1)cnn2CCc1ccc(OC2CCCCO2)cc1` (stereo not shown) [11αe, 1-(4-((Tetrahydro-2H-pyran-2-yl)oxy)phenethyl)-1H-indazole], the 50% inhibitory concentration (IC50) is 40 µM. Further, under setting [1], the inhibition at 0.1 µM was 23%, the inhibition at 10 µM is 33% and the inhibition at 50 µM came to 54%. Also, the inhibition at 1 µM under setting [5] was determined as 20%. Under setting [2], the inhibition at 10 µM stood at 8% and the inhibition at 50 µM came to 9%. Further, the inhibition at 100 µM under setting [3] is 88%. In addition, under setting [4], the inhibition at 100 µM came to 20%.

Turning to `c1ncn(CCc2ccc(OC3CCCCO3)cc2)n1` (stereo not shown) [11βa, 1-(4-((Tetrahydro-2H-pyran-2-yl)oxy)phenethyl)-1H-1,2,4-triazole], the inhibition at 10 µM is, setting by setting: under setting [1], 32%; under setting [2], 20%. For the same compound, the inhibition at 50 µM was found to be 31% under setting [1] and 17% under setting [2]. The inhibition at 100 µM turned out to be 16% under setting [3] and 3% under setting [4].

`Oc1ccc(CCn2cnc3ccccc32)cc1` [12αa, 1-(4-Hydroxyphenylethyl)-1H-benzo[d]imidazol hydrochloride]: the inhibition at 10 µM reads like this: under setting [1], -2.2%; under setting [2], -2.7%. The inhibition at 50 µM reads like this: under setting [1], 0.9%; under setting [2], -4.3%. Besides, the inhibition at 100 µM reads like this: under setting [3], -2.5%; under setting [4], -7.4%.

Consider `Oc1ccc(CCOc2ccc(CCn3cnc4ccccc43)cc2)cc1` [12αb, 1-(4-(4-Hydroxyphenethoxy)phenethyl)-1H-benzo[d]imidazol hydrochloride], for which, under setting [1], the inhibition at 10 µM is -25% and the inhibition at 50 µM was -1%. Further, under setting [2], the inhibition at 10 µM is -7% and the inhibition at 50 µM was -4%. Moreover, the inhibition at 100 µM under setting [3] amounted to 3%. In addition, under setting [4], the percent change in peak amplitude vs DMSO control (negative = inhibition, positive = activation) at 100 µM came to 0%.

Turning to `Oc1ccc(CCOc2ccc(CCn3cnc4cc(F)ccc43)cc2)cc1` [12αc, 5-Fluoro-1-(4-(4-hydroxyphenethoxy)phenethyl)-1H-benzo[d]imidazol hydrochloride], the inhibition at 10 µM is -20% under setting [1] and -11% under setting [2]. Also, the inhibition at 50 µM runs as follows: under setting [1], -3%; under setting [2], -2%. Moreover, the inhibition at 100 µM runs as follows: under setting [3], -1%; under setting [4], -5%.
